Test results reported in PMC8999133, “Resemblance-Ranking Peptide Library to Screen for Binders to Antibodies on a Peptidomic Scale” (International Journal of Molecular Sciences, 2022).

Assays:
rituximab (RTX) = experiment: First screen of the resemblance-ranking peptide library with RTX, fluorescent immunostaining; type: binding; settings: RTX 30 µg/mL; among 160,000 peptides
Method: Peptide microarrays: A peptide library of 160,000, peptides as well other peptide microarrays for the substitutions and the KD analysis, were fabricated via the ultra-high-density peptide microarray technology of AXXELERA (Karlsruhe, Germany) [49]. The AXXELERA technology allows for the 30 µm-sized square peptide spots with a pitch of 60 µm that corresponds to ca. 28,000 spots/cm^2.
Immunostaining: Peptide microarrays were incubated with the monoclonal anti-CD20 antibody rituximab (Sigma-Aldrich, Steinheim, Germany) with concentrations depending on the type of experiment, diluted in PBS-T (Phosphate Buffered Saline with Tween) overnight at 4 °C. A rituximab concentration of 30 µg/mL was used for the first screen of the entire resemblance-ranking peptide library. Then, the peptide chips were stained with the fluorescently labeled secondary anti-human-IgG antibodies (Jackson ImmunoResearch, Philadelphia, PA, USA). The signals from the spots were read out with the confocal scanner Innoscan 1100 AL. The scans were performed in the red channel (635 nm), with a resolution of 2 µm/pixel, a speed of 35 µm/s, and a PMT gain of 9.

rituximab = settings: forward and reverse sequences; not bound by other anti-CD20 mAbs; cited from earlier work
Text: The peptide […] from the resem ...

Substance | ratio to the maximum signal value (rituximab (RTX)) | binding to rituximab (rituximab)
LWKPWLQPCC | 0.13 | 
ELWKPW |  | bind rituximab
WPKWLE |  | bind rituximab
